Two molecules from US8263772B2, “MCH receptor antagonists” (Eli Lilly and Company, priority 2006, dated 2012) can be followed below.

What is called pKi is the Ki on a negative log10 scale, so that one unit is a factor of ten. Low readings indicate a high Ki, high ones a low Ki.

pKi: −log10 of the molar value. Where a name gives a salt, the structure may show the parent alone.

Assay [1] relates to diet-induced obese male Long-Evans rats. Put plainly: In vivo efficacy: food intake and body weight change in diet-induced obese rats. The conditions noted are these: 10 mg/Kg, oral gavage once a day for 3 days. Further details: species or system rat. The protocol:
Vehicle consisted of 10% acacia and 0.15% saccharin in water.
House animals individually in a temperature regulated room (24° C.) with a reverse 12 hour light/dark cycle (dark 10:00/22:00). Make water and food (Teklad 95217, Harlan, Wis.) available ad libitum. Dose compounds orally once a day before onset of dark for 3 days. Measure daily food intake and body weight change for the 3 day period. The compound of Example 25 produces an average body weight reduction of about 6 grams@10 mg/Kg versus vehicle control.

The target of the next assay is T1, MCHR1 (Homo sapiens, UniProt Q99705).
T1 construct: The full-length cDNA for human MCHR1 is cloned; expressed in transfected cells; host or cells: AV12 cells previously transfected with Gα15; membranes
T1 sequence (Q99705 whole entry): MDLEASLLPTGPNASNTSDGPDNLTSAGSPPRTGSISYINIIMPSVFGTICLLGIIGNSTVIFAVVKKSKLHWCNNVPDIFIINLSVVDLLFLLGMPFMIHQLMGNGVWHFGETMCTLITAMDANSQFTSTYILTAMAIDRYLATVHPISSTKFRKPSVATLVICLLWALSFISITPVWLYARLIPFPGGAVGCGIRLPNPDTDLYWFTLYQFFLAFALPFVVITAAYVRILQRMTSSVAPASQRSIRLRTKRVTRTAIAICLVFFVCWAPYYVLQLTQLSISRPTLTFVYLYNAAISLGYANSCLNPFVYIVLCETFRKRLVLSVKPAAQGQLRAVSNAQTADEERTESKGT
The assay is described as follows: 125I-MCH competitive binding assay with clone 43 membranes (SPA). The conditions noted are these: 125I-MCH binding, Ki from IC50 by Cheng-Prusoff. The protocol: The full-length cDNA for human MCHR1 is cloned from a human adult brain cDNA library (Edge Biosystems, Cat. 38356) by standard polymerase chain reaction (PCR) methodology employing the following primers: sense, 5′-GCCACCATGGACCT GGAAGCCTCGCTGC-3′; anti-sense, 5′-[…]-3′. The PCR reaction is performed in a final volume of 50 μL containing 5 μL of a 10× stock solution of PCR buffer, 1 μL of 10 mM dNTP mixture (200 μM final), 2 μl of 50 mM Mg(SO4) (2 mM final), 0.5 μL of 20 μM solutions of each primer (0.2 μM final), 5 μL of template cDNA containing 0.5 ng DNA, 0.5 μL of Platinum Taq High Fidelity DNA polymerase (Gibco Life Technologies) and 36 μL of H2O. […]
In order to generate cell lines stably expressing MCHR1, subclone the insert into the Xba I and Not I sites of pcDNA(+)-3.1-neomycin (Invitrogen). […] The G418-resistant colonies are further selected for MCHR1 expression by measuring MCH-stimulated Ca^2+ transients with a fluorometric imaging plate reader (FLIPR, Molecular Devices). […]
Binding of compounds to MCHR1 is assessed in a competitive binding assay employing ^125I-MCH, compound and clone 43 membranes. […] Non-specific binding is assessed in the presence of 0.1 μM unlabeled MCH. Bound ^125I-MCH is determined by placing sealed plates in a Microbeta Trilux (Perkin Elmer Life and Analytical Sciences Inc.) and counting after a 12 h delay. […]

Regarding `COc1cc(N2CCc3cc(-c4ccc(Cl)cc4)sc3C2=O)ccc1NC(=O)CN1CCCC1.Cl` [Example 25, N-{4-[2-(4-Chloro-phenyl)-7-oxo-4,7-dihydro-5H-thieno[2,3-c]pyridin-6-yl]-2-methoxy-phenyl}-2-pyrrolidin-1-yl-acetamide hydrochloride], in assay [1], the “average body weight reduction versus vehicle control” value is recorded as “about 6 grams”.
Turning to `O=C(CN1CCCC1)Nc1ccc(-n2ccc3cc(-c4ccc(Cl)cc4)sc3c2=O)cc1` [Example 58, N-{4-[2-(4-Chloro-phenyl)-7-oxo-7H-thieno[2,3-c]pyridin-6-yl]-phenyl}-2-pyrrolidin-1-yl-acetamide, hydrochloride], the pKi on MCHR1 is around 8.52.
